From patent US20130296331A1, “COMPOSITIONS AND METHODS FOR AMELIORATING RENAL DYSFUNCTION INDUCED BY RENAL HYPOPERFUSION OR ACUTE KIDNEY INJURY” (Technion Research and Development Foundation Ltd., priority 2010, published 2013)

Columns and labels:
[1] = test system: rats subjected to IAP of 14 mm Hg; settings: rat, in vivo; cited from earlier work
rats with MI = test: Pneumoperitoneum (incremental IAP) in rats with myocardial infarction (LAD occlusion); format: in vivo, rat; settings: pretreated 10 mg/kg/day for 4 days
Method: Rats were anesthetized with a combination of ketamine (87 mg/kg) and xylazine (13 mg/kg), intubated, and mechanically ventilated at a rate of 80-90 cycles per minute with a tidal volume of 1-2 ml/100 gr. MI was induced by the most common method. Specifically, the left anterior descending (LAD) artery was completely and permanently occluded. Consequently, a large area of the left ventricle wall was deprived of its blood supply, and was thus exposed to hypoxia, ischemia, nutrient starvation and other conditions that develop under these circumstances. Seven days after LAD inclusion, the rats were used in the experimental model of pneumoperitoneum described below.
(§1) The abdomen was opened via small incision in the lower third between the xiphoid and pubis and the urinary bladder was catheterized for urine collection. A Veress needle was inserted into the abdominal cavity and connected to the CO2 gas supply to maintain intra-abdominal pressure (IAP) at the desired level using a special insufflator (Aesculap, Tuttlingen, Germany). The muscle and skin layers of the abdominal wall were closed separately by silk sutures in an airtight manner (FIG. 2).
(§2) Male Sprague-Dawley rats were organized into several groups. Normal rats, rats with compensated or decompensated CHF (n=12-13), and rats with MI (n=7) were subjected to IAP of 0 (baseline), 7, 10 or 14 mmHg, over 45-60 min for each pressure, followed by deflation period of 60 min (recovery), as illustrated in Scheme 1. Six additional rats with decompensated CHF and seven additional rats with MI were pretreated with the phosphodiesterase type 5 (PDE5) inhibitor Cialis® (tadalafil; 10 mg/kg/day) for 4 days prior to the experiment. Urine flow rate (V), absolute Na^+ excretion (UNaV), glomerular filtration rate (GFR), renal plasma flow (RPF) and blood pressure were determined throughout the experiments.
In this study we tested whether rats with heart failure induced by myocardial infarction (MI) display renal susceptibility to IAP similar to that of rats with CHF induced by the creation of ACF. As expected and shown in FIGS. 9A-9D, rats with MI had lower basal GFR and RPF compared with control animals. […] These adverse effects were more profound in rats with MI as compared with sham controls.

[2] = test system: rats with decompensated CHF; test: Pneumoperitoneum (incremental IAP) in rats with decompensated CHF induced by aorto-caval fistula; format: in vivo, rat; settings: pretreated 10 mg/kg/day for 4 days
Source text: CHF was induced by surgical creation of aorto-caval fistula (ACF) between the abdominal aorta and the vena cava, as schematically shown in FIG. 1. […] Similar pattern was reported in clinical CHF.
as §1, §2
In this study, the effects of the phosphodiesterase type 5 (PDE5) inhibitor Cialis® (tadalafil), administered as described in Materials and Methods, on the adverse effects of incremental IAP, simulating pneumoperitoneum, on GFR, RPF, urinary flow rate (V), urinary sodium excretion (UNaV) and urinary cGMP excretion (UcGMP), in rats with decompensated CHF were tested.

[3] = test system: rats with ischemic acute kidney injury; test: Experimental acute kidney injury induced by warm renal ischemia of 45 min (renal artery clamping); format: in vivo, rat; settings: rats pretreated before renal ischemia of 45 min
Method: Male Sprague Dawley rats weighing 300-350 gr were housed under standardized conditions for 2-3 days. Following an overnight fast, the animals were anaesthetized with an inactin anesthesia (100 mg/kg, IP) and placed on a controlled heating (thermoregulated) table keeping the body temperature at 37° C. Polyethylene tubes (PE50) were inserted into the right carotid artery for blood pressure monitoring and blood sampling, and into the jugular vein for infusion of 0.9% normal saline (0.9% NaCl) at a 1.5 ml/h rate, as well as 2% inulin and 1% para-aminohippuric acid (PAH) at a rate of 1.5 ml/h, by syringe pumps. Arterial blood pressure was continuously monitored with a pressure transducer connected to the carotid arterial line. Additional two catheters were inserted after a supravesical incision into the bladder for urine collection. In order to minimize dehydration, the abdominal area was covered with saline-soaked gauze. After 2 baseline urine collections, the left renal artery and vein were dissected and the perirenal fat was preserved. […] Urinary samples were analyzed for neutrophil gelatinase-associated lipocalcin (NGAL) and kidney injury molecule 1 (KIM-1), two novel biomarkers of renal damage. […] The levels of NGAL and KIM-1 were determined in urine samples prior to acute kidney injury (AKI) and at various time points following renal artery clamping.

SMILES: O=[N+]([O-])OCC(CO[N+](=O)[O-])O[N+](=O)[O-] [nitroglycerine]
- IAP-induced renal dysfunction (decreased renal excretory function and hypofiltration) [1]: partially ameliorated

SMILES: CN1CC(=O)N2[C@H](c3ccc4c(c3)OCO4)c3[nH]c4ccccc4c3C[C@@H]2C1=O [Cialis®, (6R-trans)-6-(1,3-benzodioxol-5-yl)-2,3,6,7,12,12a-hexahydro-2-methyl-pyrazino[1′,2′:1,6]pyrido[3,4-b]indole-1,4-dione]
- inhibitory effect of IAP on urinary cGMP excretion (UcGMP V) (rats with MI; FIG. 11): significantly attenuated
- adverse effects of pneumoperitoneum on GFR (rats with MI; FIGS. 9A-9B): substantially attenuated
- adverse effects of pneumoperitoneum on RPF (rats with MI; FIGS. 9C-9D): substantially attenuated
- adverse effects of pneumoperitoneum on urinary flow rate (V) (rats with MI; IAP 14 mmHg, FIG. 10A): partially ameliorated
- adverse effects of pneumoperitoneum on urinary sodium excretion (UnaV) (rats with MI; IAP 14 mmHg, FIG. 10B): partially ameliorated
- adverse effects of increased IAP on urinary flow rate (V) ([2]; FIG. 7A): abolished
- adverse effects of increased IAP on urinary sodium excretion (UNaV) ([2]; FIG. 7B): abolished
- inhibitory effect of IAP on urinary cGMP excretion (UcGMP V) ([2]; FIG. 8): prevented
- adverse effects of increased IAP on GFR ([2]; IAP 7, 10, 14 mmHg, FIGS. 6A-6B): remarkably attenuated
- adverse effects of increased IAP on RPF ([2]; IAP 7, 10, 14 mmHg, FIGS. 6C-6D): remarkably attenuated
- urinary excretion of NGAL ([3]; FIG. 13A): significantly attenuated
- urinary excretion of KIM-1 ([3]; FIG. 13B): significantly attenuated
